From the supplement of paper PMC11451515

How the values were obtained:
Settings in all cases: 48 h
[1] = system: SEM cells; test: cell viability relative to DMSO control; higher = less cytotoxic
In short: (§1)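 Viability is a per-plate percentage relative to DMSO wells, with cell-free wells as background. CellTiter-Glo One luminescence was read after 48 h at 37°C on 1536-well plates (5 μl) of NOMO1 or SEM (500 cells/well) or P12-Ichikawa (1000 cells/well) leukemia cells. The cells had been adapted for at least four passages in each medium and pin-dosed with library compounds in DMSO from 47 μM to 0.79 nM in 11 threefold steps.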

[2] = system: SEM cells; test: AUC of viability dose-response curve (% viability x log10 dose units); higher = less sensitive
In short: (§2)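 Leukemia cells adapted to each medium were seeded in 1536-well plates (500 or 1000 cells/well). They were dosed with library compounds in DMSO at 11 threefold doses, 47 μM to 0.79 nM, for 48 h at 37°C. CellTiter-Glo One luminescence was normalised per plate to DMSO and cell-free wells. Area under the curve was integrated by trapezoidal rule over log10 doses on a four-parameter log-logistic fit; curves exceeding full viability were scaled and curves failing quality control removed.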

[3] = system: P12-Ichikawa; test: as above
In short: as §2

[4] = system: NOMO1; test: as above
In short: as §2

[5] = system: P12-Ichikawa; test: cell viability relative to DMSO control; higher = less cytotoxic
In short: as §1

[6] = system: NOMO1; test: as above
In short: as §1

[7] = HPLM + 10% dialyzed FBS, 0.000781 µM
[8] = HPLM + 10% dialyzed FBS, 0.00234 µM
[9] = HPLM + 10% dialyzed FBS, 0.00702 µM
[10] = HPLM + 10% dialyzed FBS, 0.0211 µM
[11] = HPLM + 10% dialyzed FBS, 0.0632 µM
[12] = HPLM + 10% dialyzed FBS, 0.19 µM
[13] = HPLM + 10% dialyzed FBS, 0.569 µM
[14] = HPLM + 10% dialyzed FBS, 1.71 µM
[15] = HPLM + 10% dialyzed FBS, 5.12 µM
[16] = HPLM + 10% dialyzed FBS, 15.4 µM
[17] = HPLM + 10% dialyzed FBS, 46.1 µM
[18] = RPMI 5 mM glucose + 10% dialyzed FBS
[19] = RPMI 5 mM glucose + 10% FBS, 0.000781 µM
[20] = RPMI 5 mM glucose + 10% FBS, 0.00234 µM
[21] = RPMI 5 mM glucose + 10% FBS, 0.00702 µM
[22] = RPMI 5 mM glucose + 10% FBS, 0.0211 µM
[23] = RPMI 5 mM glucose + 10% FBS, 0.0632 µM
[24] = RPMI 5 mM glucose + 10% FBS, 0.19 µM
[25] = RPMI 5 mM glucose + 10% FBS, 0.569 µM
[26] = RPMI 5 mM glucose + 10% FBS, 1.71 µM
[27] = RPMI 5 mM glucose + 10% FBS, 5.12 µM
[28] = RPMI 5 mM glucose + 10% FBS, 15.4 µM
[29] = RPMI 5 mM glucose + 10% FBS, 46.1 µM
[30] = RPMI 5 mM glucose + 10% dialyzed FBS, 0.000781 µM
[31] = RPMI 5 mM glucose + 10% dialyzed FBS, 0.00234 µM
[32] = RPMI 5 mM glucose + 10% dialyzed FBS, 0.00702 µM
[33] = RPMI 5 mM glucose + 10% dialyzed FBS, 0.0211 µM
[34] = RPMI 5 mM glucose + 10% dialyzed FBS, 0.0632 µM
[35] = RPMI 5 mM glucose + 10% dialyzed FBS, 0.19 µM
[36] = RPMI 5 mM glucose + 10% dialyzed FBS, 0.569 µM
[37] = RPMI 5 mM glucose + 10% dialyzed FBS, 1.71 µM
[38] = RPMI 5 mM glucose + 10% dialyzed FBS, 5.12 µM
[39] = RPMI 5 mM glucose + 10% dialyzed FBS, 15.4 µM
[40] = RPMI 5 mM glucose + 10% dialyzed FBS, 46.1 µM

CC[C@H]1OC(=O)[C@H](C)[C@@H](O[C@H]2C[C@@](C)(OC)[C@@H](O)[C@H](C)O2)[C@H](C)[C@@H](O[C@@H]2O[C@H](C)C[C@H](N(C)C)[C@H]2O)[C@](C)(O)C[C@@H](C)CN(C)[C@H](C)[C@@H](O)[C@]1(C)O
cell viability [1, 7]: 85.1%
cell viability [1, 8]: 122%
cell viability [1, 9]: 124%
cell viability [1, 10]: 129%
cell viability [1, 11]: 133%
cell viability [1, 12]: 127%
cell viability [1, 13]: 149%
cell viability [1, 14]: 119%
cell viability [1, 15]: 129%
cell viability [1, 16]: 133%
cell viability [1, 17]: 96.6%
AUC of viability dose-response curve ([2]; HPLM + 10% dialyzed FBS): 458
AUC of viability dose-response curve ([2]; RPMI 5 mM glucose + 10% FBS): 458
AUC of viability dose-response curve [2, 18]: 467
AUC of viability dose-response curve ([3]; HPLM + 10% dialyzed FBS): 458
AUC of viability dose-response curve ([3]; RPMI 5 mM glucose + 10% FBS): 452
AUC of viability dose-response curve [3, 18]: 459
AUC of viability dose-response curve ([4]; HPLM + 10% dialyzed FBS): 458
AUC of viability dose-response curve ([4]; RPMI 5 mM glucose + 10% FBS): 419
AUC of viability dose-response curve [4, 18]: 446

CCCCC[C@H](O)/C=C/[C@H]1[C@H](O)CC(=O)[C@@H]1CCCCCCC(=O)O
AUC of viability dose-response curve ([2]; HPLM + 10% dialyzed FBS): 402
AUC of viability dose-response curve ([2]; RPMI 5 mM glucose + 10% FBS): 399
AUC of viability dose-response curve [2, 18]: 409
AUC of viability dose-response curve ([3]; HPLM + 10% dialyzed FBS): 464
AUC of viability dose-response curve ([3]; RPMI 5 mM glucose + 10% FBS): 445
AUC of viability dose-response curve [3, 18]: 453
AUC of viability dose-response curve ([4]; HPLM + 10% dialyzed FBS): 412
AUC of viability dose-response curve ([4]; RPMI 5 mM glucose + 10% FBS): 455
AUC of viability dose-response curve [4, 18]: 417

C[C@@H]1C(=O)OC2[C@H](O)[C@]34[C@H]5C[C@@H](C(C)(C)C)[C@]36[C@@H](OC(=O)[C@@H]6O)O[C@@]4(C(=O)O5)[C@]21O (some centres undefined)
cell viability [1, 7]: 116%
cell viability [1, 8]: 102%
cell viability [1, 9]: 129%
cell viability [1, 10]: 119%
cell viability [1, 11]: 127%
cell viability [1, 12]: 116%
cell viability [1, 13]: 117%
cell viability [1, 14]: 119%
cell viability [1, 15]: 91.8%
cell viability [1, 16]: 107%
cell viability [1, 17]: 65.8%
AUC of viability dose-response curve ([2]; HPLM + 10% dialyzed FBS): 451
AUC of viability dose-response curve ([2]; RPMI 5 mM glucose + 10% FBS): 437
AUC of viability dose-response curve [2, 18]: 424
AUC of viability dose-response curve ([3]; HPLM + 10% dialyzed FBS): 452
AUC of viability dose-response curve ([3]; RPMI 5 mM glucose + 10% FBS): 445
AUC of viability dose-response curve [3, 18]: 450
AUC of viability dose-response curve ([4]; HPLM + 10% dialyzed FBS): 450
AUC of viability dose-response curve ([4]; RPMI 5 mM glucose + 10% FBS): 457
AUC of viability dose-response curve [4, 18]: 457

COc1c(O)cc2c(c1O)[C@@H]1O[C@H](CO)[C@@H](O)[C@H](O)[C@H]1OC2=O
AUC of viability dose-response curve ([2]; HPLM + 10% dialyzed FBS): 431
AUC of viability dose-response curve ([2]; RPMI 5 mM glucose + 10% FBS): 394
AUC of viability dose-response curve [2, 18]: 409
AUC of viability dose-response curve ([3]; HPLM + 10% dialyzed FBS): 432
AUC of viability dose-response curve ([3]; RPMI 5 mM glucose + 10% FBS): 432
AUC of viability dose-response curve [3, 18]: 427
AUC of viability dose-response curve ([4]; HPLM + 10% dialyzed FBS): 419
AUC of viability dose-response curve ([4]; RPMI 5 mM glucose + 10% FBS): 448
AUC of viability dose-response curve [4, 18]: 454

NCCc1c[nH]cn1
AUC of viability dose-response curve ([2]; HPLM + 10% dialyzed FBS): 473
AUC of viability dose-response curve ([2]; RPMI 5 mM glucose + 10% FBS): 437
AUC of viability dose-response curve [2, 18]: 432
AUC of viability dose-response curve ([3]; HPLM + 10% dialyzed FBS): 456
AUC of viability dose-response curve ([3]; RPMI 5 mM glucose + 10% FBS): 449
AUC of viability dose-response curve [3, 18]: 461
AUC of viability dose-response curve ([4]; HPLM + 10% dialyzed FBS): 466
AUC of viability dose-response curve ([4]; RPMI 5 mM glucose + 10% FBS): 460
AUC of viability dose-response curve [4, 18]: 444

CCC(C1CCC(C)C(O1)C(C)C(O)C(C)C(=O)C(CC)C2OC\3(O[C@]4(CC[C@@](C)(O4)C5CC[C@@](O)(CC)C(C)O5)C(O)\C=C3)C(C)CC2C)C([O-])=O (some centres undefined)
cell viability [1, 7]: 105%
cell viability [1, 8]: 13.3%
cell viability [1, 9]: 124%
cell viability [1, 10]: 103%
cell viability [1, 11]: 113%
cell viability [1, 12]: 118%
cell viability [1, 13]: 116%
cell viability [1, 14]: 77.4%
cell viability [1, 15]: 29.6%
cell viability [1, 16]: 22.9%
cell viability [1, 17]: 21.3%
cell viability [1, 19]: 107%
cell viability [1, 20]: 101%
cell viability [1, 21]: 110%
cell viability [1, 22]: 107%
cell viability [1, 23]: 110%
cell viability [1, 24]: 109%
cell viability [1, 25]: 98.3%
cell viability [1, 26]: 55%
cell viability [1, 27]: 25.5%
cell viability [1, 28]: 14.3%
cell viability [1, 29]: 10.4%
cell viability [1, 30]: 58.1%
cell viability [1, 31]: 15%
cell viability [1, 32]: 97.9%
cell viability [1, 33]: 97.9%
cell viability [1, 34]: 113%
cell viability [1, 35]: 97.8%
cell viability [1, 36]: 89.1%
cell viability [1, 37]: 50.2%
cell viability [1, 38]: 26.9%
cell viability [1, 39]: 22.5%
cell viability [1, 40]: 14.3%
cell viability [5, 7]: 103%
cell viability [5, 8]: 112%
cell viability [5, 9]: 109%
cell viability [5, 10]: 101%
cell viability [5, 11]: 106%
cell viability [5, 12]: 106%
cell viability [5, 13]: 105%
cell viability [5, 14]: 82.8%
cell viability [5, 15]: 74.5%
cell viability [5, 16]: 74.8%
cell viability [5, 17]: 64.5%
cell viability [5, 19]: 85%
cell viability [5, 20]: 111%
cell viability [5, 21]: 101%
cell viability [5, 22]: 111%
cell viability [5, 23]: 104%
cell viability [5, 24]: 109%
cell viability [5, 25]: 100%
cell viability [5, 26]: 73.7%
cell viability [5, 27]: 60.9%
cell viability [5, 28]: 56.1%
cell viability [5, 29]: 42.5%
cell viability [5, 30]: 96.4%
cell viability [5, 31]: 107%
cell viability [5, 32]: 109%
cell viability [5, 33]: 113%
cell viability [5, 34]: 112%
cell viability [5, 35]: 108%
cell viability [5, 36]: 86.2%
cell viability [5, 37]: 68.8%
cell viability [5, 38]: 55.7%
cell viability [5, 39]: 44.9%
cell viability [5, 40]: 41.1%
cell viability [6, 7]: 111%
cell viability [6, 8]: 121%
cell viability [6, 9]: 101%
cell viability [6, 10]: 91.2%
cell viability [6, 11]: 119%
cell viability [6, 12]: 109%
cell viability [6, 13]: 117%
cell viability [6, 14]: 68.6%
cell viability [6, 15]: 38%
cell viability [6, 16]: 27.3%
cell viability [6, 17]: 26.4%
cell viability [6, 19]: 90.5%
cell viability [6, 20]: 34.1%
cell viability [6, 21]: 99.9%
cell viability [6, 22]: 90.6%
cell viability [6, 23]: 114%
cell viability [6, 24]: 110%
cell viability [6, 25]: 97.1%
cell viability [6, 26]: 67.6%
cell viability [6, 27]: 19.7%
cell viability [6, 28]: 16.6%
cell viability [6, 29]: 15.3%
cell viability [6, 30]: 96.9%
cell viability [6, 31]: 78.6%
cell viability [6, 32]: 132%
cell viability [6, 33]: 153%
cell viability [6, 34]: 119%
cell viability [6, 35]: 75.1%
cell viability [6, 36]: 102%
cell viability [6, 37]: 36.2%
cell viability [6, 38]: 15.2%
cell viability [6, 39]: 13.5%
cell viability [6, 40]: 11%
AUC of viability dose-response curve ([3]; HPLM + 10% dialyzed FBS): 426
AUC of viability dose-response curve ([3]; RPMI 5 mM glucose + 10% FBS): 403
AUC of viability dose-response curve [3, 18]: 382
